In ChEMBL document CHEMBL3879897, “1,4-dithiin and 1,4-dithiepin-1,1,4,4, tetroxide derivatives useful as antagonists of the human galanin receptor” (2002):

Columns and labels:
Type in all cases: subcellular
[1] = target: T1, Galanin receptor type 1 (Rattus norvegicus) (UniProt Q62805); assay: (§1) Antagonist activity at galanin -1 receptor in rat brain synaptosomes assessed as galanin-mediated suppression of K+-Krebs-ringer solution-induced [3H]-acetylcholine secretion at 10 uM measured 10 mins post 30 sces superfusing with K+-Krebs-ringer solution by liquid scintillation spectrometric method (reference value: […]%)
T1 sequence (whole entry): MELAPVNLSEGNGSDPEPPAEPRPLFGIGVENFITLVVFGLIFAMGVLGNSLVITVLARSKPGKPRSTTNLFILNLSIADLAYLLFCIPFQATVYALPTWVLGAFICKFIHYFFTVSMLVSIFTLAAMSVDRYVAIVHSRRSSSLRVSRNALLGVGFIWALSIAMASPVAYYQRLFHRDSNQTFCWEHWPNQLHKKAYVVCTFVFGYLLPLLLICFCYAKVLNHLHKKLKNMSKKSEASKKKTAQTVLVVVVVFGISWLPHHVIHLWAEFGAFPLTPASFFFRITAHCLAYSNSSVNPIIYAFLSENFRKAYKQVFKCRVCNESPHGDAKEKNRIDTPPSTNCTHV

[2] = target: T1, Galanin receptor type 1 (Rattus norvegicus); assay: as §1, with “at 1” for “at 10”
[3] = target: T1, Galanin receptor type 1 (Rattus norvegicus); assay: Antagonist activity at galanin -1 receptor in rat brain synaptosomes assessed as galanin-mediated suppression of basal [3H]-acetylcholine secretion at 10 uM measured 10 mins post 30 sces superfusing with K+-Krebs-ringer solution by liquid scintillation spectrometric method (reference value: […]%)
[4] = target: T1, Galanin receptor type 1 (Rattus norvegicus); assay: Antagonist activity at galanin -1 receptor in rat brain synaptosomes assessed as galanin-mediated suppression of basal [3H]-acetylcholine secretion at 1 uM measured 10 mins post 30 sces superfusing with K+-Krebs-ringer solution by liquid scintillation spectrometric method (reference value: […]%)

Compound	inhibition [1] [%]	inhibition [2] [%]	inhibition [3] [%]	inhibition [4] [%]
O=S1(=O)C=C(c2ccc(I)cc2)S(=O)(=O)CCC1	22.3	35.2	37	39.2
O=S1(=O)C=C(c2cccc(F)c2)S(=O)(=O)CCC1	–	23.9	37	38.9
